Source: ChEMBL document CHEMBL2169819, “Synthesis and biological evaluation of 2-amino-3-(4-chlorobenzoyl)-4-[(4-arylpiperazin-1-yl)methyl]-5-substituted-thiophenes. effect of the 5-modification on allosteric enhancer activity at the A1 adenosine receptor” (J Med Chem, 2012)

target: T1, Adenosine receptor A1 (Homo sapiens) (UniProt P30542); assay: Allosteric enhancing activity at human adenosine A1 receptor expressed in CHO cells assessed as increase in CCPA-induced [3H]DPCPX displacement at 10 uM after 90 mins relative to control; assay type: cell-based
T1 sequence (whole entry): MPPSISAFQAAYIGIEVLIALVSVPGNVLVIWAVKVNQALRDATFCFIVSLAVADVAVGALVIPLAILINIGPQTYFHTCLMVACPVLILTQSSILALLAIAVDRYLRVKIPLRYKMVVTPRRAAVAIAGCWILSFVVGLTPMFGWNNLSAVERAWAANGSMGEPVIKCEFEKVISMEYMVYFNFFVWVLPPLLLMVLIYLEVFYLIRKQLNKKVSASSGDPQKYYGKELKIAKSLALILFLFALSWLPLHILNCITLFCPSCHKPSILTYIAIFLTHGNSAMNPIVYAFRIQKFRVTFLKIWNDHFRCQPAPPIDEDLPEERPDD

| Compound | Ratio Ki |
| --- | --- |
| Nc1scc(CN2CCN(c3ccc(Cl)cc3)CC2)c1C(=O)c1ccc(Cl)cc1 | 5.6 |
| Cc1sc(N)c(C(=O)c2ccc(Cl)cc2)c1CN1CCN(c2ccc(I)cc2)CC1 | 4.8 |
| Cc1ccc(N2CCN(Cc3c(C)sc(N)c3C(=O)c3ccc(Cl)cc3)CC2)cc1 | 5.9 |
| Nc1sc(-c2ccc(Cl)cc2)c(CN2CCN(c3ccccc3C(F)(F)F)CC2)c1C(=O)c1ccc(Cl)cc1 | 7.2 |
| Nc1sc(-c2ccccc2)c(CN2CCN(c3ccccc3C(F)(F)F)CC2)c1C(=O)c1ccc(Cl)cc1 | 7.6 |

More lines, now with the values ahead:

| Ratio Ki | Compound |
| --- | --- |
| 8 | Nc1sc(-c2ccc(Cl)cc2)c(CN2CCN(c3ccc(Cl)c(C(F)(F)F)c3)CC2)c1C(=O)c1ccc(Cl)cc1 |
| 7.9 | Nc1sc(-c2ccccc2)c(CN2CCN(c3ccc(Cl)c(C(F)(F)F)c3)CC2)c1C(=O)c1ccc(Cl)cc1 |

target: T1, Adenosine receptor A1 (Homo sapiens); assay: Allosteric enhancing activity at human adenosine A1 receptor expressed in CHO cells assessed as increase in [3H]-2-chloro-N6-cyclopentyladenosine Bmax at 10 uM after 90 mins relative to control; assay type: cell-based

| Compound | fold change (FC) |
| --- | --- |
| Nc1scc(CN2CCN(c3ccc(Cl)cc3)CC2)c1C(=O)c1ccc(Cl)cc1 | 7 |
| Cc1sc(N)c(C(=O)c2ccc(Cl)cc2)c1CN1CCN(c2ccc(I)cc2)CC1 | 5.4 |
| Cc1ccc(N2CCN(Cc3c(C)sc(N)c3C(=O)c3ccc(Cl)cc3)CC2)cc1 | 6.6 |
| Nc1sc(-c2ccc(Cl)cc2)c(CN2CCN(c3ccccc3C(F)(F)F)CC2)c1C(=O)c1ccc(Cl)cc1 | 8.1 |
| Nc1sc(-c2ccccc2)c(CN2CCN(c3ccccc3C(F)(F)F)CC2)c1C(=O)c1ccc(Cl)cc1 | 8.2 |

Next, values leading:

| fold change (FC) | Compound |
| --- | --- |
| 10.1 | Nc1sc(-c2ccc(Cl)cc2)c(CN2CCN(c3ccc(Cl)c(C(F)(F)F)c3)CC2)c1C(=O)c1ccc(Cl)cc1 |
| 8.5 | Nc1sc(-c2ccccc2)c(CN2CCN(c3ccc(Cl)c(C(F)(F)F)c3)CC2)c1C(=O)c1ccc(Cl)cc1 |

target: T2, Adenosine receptor A3 (Homo sapiens) (UniProt P0DMS8); assay: Displacement of [3H]MRE-3008-F20 from human adenosine A3 receptor expressed in CHO cells at 10 uM after 120 mins by scintillation counting; assay type: cell-based
T2 sequence (whole entry): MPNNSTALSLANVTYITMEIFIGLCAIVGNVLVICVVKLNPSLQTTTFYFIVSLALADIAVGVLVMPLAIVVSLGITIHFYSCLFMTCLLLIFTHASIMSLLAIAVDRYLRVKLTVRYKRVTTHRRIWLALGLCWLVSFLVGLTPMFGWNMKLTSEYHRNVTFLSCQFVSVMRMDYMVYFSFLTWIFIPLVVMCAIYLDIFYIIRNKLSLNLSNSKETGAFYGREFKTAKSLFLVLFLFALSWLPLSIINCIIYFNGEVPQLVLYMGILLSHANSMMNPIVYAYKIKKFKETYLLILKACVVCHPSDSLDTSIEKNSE

| Compound | inhibition [%] |
| --- | --- |
| Cc1sc(N)c(C(=O)c2ccc(Cl)cc2)c1CN1CCN(c2ccc(I)cc2)CC1 | < 12 |
| Cc1ccc(N2CCN(Cc3c(C)sc(N)c3C(=O)c3ccc(Cl)cc3)CC2)cc1 | < 12 |
| Nc1sc(-c2ccc(Cl)cc2)c(CN2CCN(c3ccccc3C(F)(F)F)CC2)c1C(=O)c1ccc(Cl)cc1 | < 12 |
| Nc1sc(-c2ccccc2)c(CN2CCN(c3ccccc3C(F)(F)F)CC2)c1C(=O)c1ccc(Cl)cc1 | < 12 |

Second part, the compound after the results:

| inhibition [%] | Compound |
| --- | --- |
| < 12 | Nc1sc(-c2ccc(Cl)cc2)c(CN2CCN(c3ccc(Cl)c(C(F)(F)F)c3)CC2)c1C(=O)c1ccc(Cl)cc1 |
| < 12 | Nc1sc(-c2ccccc2)c(CN2CCN(c3ccc(Cl)c(C(F)(F)F)c3)CC2)c1C(=O)c1ccc(Cl)cc1 |

target: Adenosine receptor A2a (Homo sapiens) (UniProt P29274); assay: Displacement of [3H]ZM241385 from human adenosine A2A receptor expressed in CHO cells at 10 uM after 120 mins by scintillation counting; assay type: cell-based
Sequence (P29274 whole entry): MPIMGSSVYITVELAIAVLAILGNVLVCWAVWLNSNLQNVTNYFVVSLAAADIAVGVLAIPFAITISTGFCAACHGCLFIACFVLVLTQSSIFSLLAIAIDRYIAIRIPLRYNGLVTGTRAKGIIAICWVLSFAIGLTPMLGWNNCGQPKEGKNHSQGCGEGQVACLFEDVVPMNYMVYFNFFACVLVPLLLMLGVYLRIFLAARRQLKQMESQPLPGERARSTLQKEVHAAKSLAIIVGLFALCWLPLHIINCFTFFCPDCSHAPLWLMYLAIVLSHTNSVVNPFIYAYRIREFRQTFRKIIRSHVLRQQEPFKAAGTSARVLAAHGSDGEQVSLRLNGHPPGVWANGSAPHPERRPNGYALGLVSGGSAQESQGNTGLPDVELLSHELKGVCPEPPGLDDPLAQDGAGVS

| Compound | inhibition [%] |
| --- | --- |
| Cc1sc(N)c(C(=O)c2ccc(Cl)cc2)c1CN1CCN(c2ccc(I)cc2)CC1 | < 12 |
| Cc1ccc(N2CCN(Cc3c(C)sc(N)c3C(=O)c3ccc(Cl)cc3)CC2)cc1 | < 12 |
| Nc1sc(-c2ccc(Cl)cc2)c(CN2CCN(c3ccccc3C(F)(F)F)CC2)c1C(=O)c1ccc(Cl)cc1 | < 12 |
| Nc1sc(-c2ccccc2)c(CN2CCN(c3ccccc3C(F)(F)F)CC2)c1C(=O)c1ccc(Cl)cc1 | < 12 |

Results, then the compound that gave them:

| inhibition [%] | Compound |
| --- | --- |
| < 12 | Nc1sc(-c2ccc(Cl)cc2)c(CN2CCN(c3ccc(Cl)c(C(F)(F)F)c3)CC2)c1C(=O)c1ccc(Cl)cc1 |
| < 12 | Nc1sc(-c2ccccc2)c(CN2CCN(c3ccc(Cl)c(C(F)(F)F)c3)CC2)c1C(=O)c1ccc(Cl)cc1 |

target: T1, Adenosine receptor A1 (Homo sapiens); assay: Displacement of [3H]DPCPX from human adenosine A1 receptor expressed in CHO cells at 10 uM after 120 mins by scintillation counting; assay type: cell-based

| Compound | inhibition [%] |
| --- | --- |
| Cc1sc(N)c(C(=O)c2ccc(Cl)cc2)c1CN1CCN(c2ccc(I)cc2)CC1 | < 12 |
| Cc1ccc(N2CCN(Cc3c(C)sc(N)c3C(=O)c3ccc(Cl)cc3)CC2)cc1 | < 12 |
| Nc1sc(-c2ccc(Cl)cc2)c(CN2CCN(c3ccccc3C(F)(F)F)CC2)c1C(=O)c1ccc(Cl)cc1 | < 12 |
| Nc1sc(-c2ccccc2)c(CN2CCN(c3ccccc3C(F)(F)F)CC2)c1C(=O)c1ccc(Cl)cc1 | < 12 |

Second part, the compound after the results:

| inhibition [%] | Compound |
| --- | --- |
| < 12 | Nc1sc(-c2ccc(Cl)cc2)c(CN2CCN(c3ccc(Cl)c(C(F)(F)F)c3)CC2)c1C(=O)c1ccc(Cl)cc1 |
| < 12 | Nc1sc(-c2ccccc2)c(CN2CCN(c3ccc(Cl)c(C(F)(F)F)c3)CC2)c1C(=O)c1ccc(Cl)cc1 |

target: T1, Adenosine receptor A1 (Homo sapiens); assay: Allosteric enhancing activity at human adenosine A1 receptor expressed in CHO cells assessed as inhibition of forskolin-stimulated cAMP accumulation at 100 nM incubated for 10 mins prior to forskolin-stimulation measured after 5 mins by competition protein binding assay in presence of 2-chloro-N6-cyclopentyladenosine; assay type: functional, cell-based

| Compound | inhibition [%] |
| --- | --- |
| Cc1sc(N)c(C(=O)c2ccc(Cl)cc2)c1CN1CCN(c2ccc(I)cc2)CC1 | 45 |
| Cc1ccc(N2CCN(Cc3c(C)sc(N)c3C(=O)c3ccc(Cl)cc3)CC2)cc1 | 58 |
| Nc1sc(-c2ccc(Cl)cc2)c(CN2CCN(c3ccccc3C(F)(F)F)CC2)c1C(=O)c1ccc(Cl)cc1 | 62 |
| Nc1sc(-c2ccccc2)c(CN2CCN(c3ccccc3C(F)(F)F)CC2)c1C(=O)c1ccc(Cl)cc1 | 66 |

Results, then the compound that gave them:

| inhibition [%] | Compound |
| --- | --- |
| 70 | Nc1sc(-c2ccc(Cl)cc2)c(CN2CCN(c3ccc(Cl)c(C(F)(F)F)c3)CC2)c1C(=O)c1ccc(Cl)cc1 |
| 65 | Nc1sc(-c2ccccc2)c(CN2CCN(c3ccc(Cl)c(C(F)(F)F)c3)CC2)c1C(=O)c1ccc(Cl)cc1 |

target: T1, Adenosine receptor A1 (Homo sapiens); assay: Allosteric enhancing activity at human adenosine A1 receptor expressed in CHO cells assessed as inhibition of forskolin-stimulated cAMP accumulation at 10 uM incubated for 10 mins prior to forskolin-stimulation measured after 5 mins by competition protein binding assay; assay type: functional, cell-based

| Compound | inhibition [%] |
| --- | --- |
| Cc1sc(N)c(C(=O)c2ccc(Cl)cc2)c1CN1CCN(c2ccc(I)cc2)CC1 | 54 |
| Cc1ccc(N2CCN(Cc3c(C)sc(N)c3C(=O)c3ccc(Cl)cc3)CC2)cc1 | 61 |
| Nc1sc(-c2ccc(Cl)cc2)c(CN2CCN(c3ccccc3C(F)(F)F)CC2)c1C(=O)c1ccc(Cl)cc1 | 66 |
| Nc1sc(-c2ccccc2)c(CN2CCN(c3ccccc3C(F)(F)F)CC2)c1C(=O)c1ccc(Cl)cc1 | 62 |

Further lines, results first:

| inhibition [%] | Compound |
| --- | --- |
| 76 | Nc1sc(-c2ccc(Cl)cc2)c(CN2CCN(c3ccc(Cl)c(C(F)(F)F)c3)CC2)c1C(=O)c1ccc(Cl)cc1 |
| 64 | Nc1sc(-c2ccccc2)c(CN2CCN(c3ccc(Cl)c(C(F)(F)F)c3)CC2)c1C(=O)c1ccc(Cl)cc1 |
